The record followed here is US20080188449A1, “Treatment of Conditions Caused By Calcium Abnormalities” (priority 2004, published 2008).

In data set [1] the test system is polycystin-2. Description: Fluo-4 calcium imaging in murine kidney epithelial cells. The class given is cell-based. The text has this:
(§1) Murine kidney epithelial cell lines with differing polycystin-1 or polycystin-2 expression were used to establish a cellular based mechanism for polycystin-2 mediated calcium release in response to triptolide. Because the biochemical purification analysis identified polycystin-2 as a putative triptolide binding protein, Applicants assessed whether the calcium release was dependent upon expression of polycystin-1. Epithelial cells derived from the proximal nephric tubules of Pkd1^−/− mice were first examined to determine if calcium release was observed when 100 nM of triptolide was perfused through the imaging chamber. […] To strengthen the evidence that polycystin-2 was necessary for calcium release elicited by triptolide addition, it was reconstituted by stable expression of Pkd2 into the background of Pkd2^−/− cells, which were assessed for sensitivity to triptolide.
(§2) Cells were plated on coverslips and loaded with Fluo-4 (Molecular Probes) diluted in DMSO/pluronic for 30 minutes prior to imaging. Cells were perfused with a calcium imaging buffer (HEPES, NaCl, KCl, MgSO4 and CaCl2)±100 nM triptolide. All cell traces are indicative of individual cellular fluorescence and calcium release. Data is presented as change of fluorescence over baseline control (no triptolide addition).

Data set [2] concerns the target T1, polycystin-2 (Mus musculus, UniProt O35245).
T1 construct: murine cell lines were derived from knockout and transgenic mice as previously reported; endogenous in cells; host or cells: Murine kidney proximal tubule epithelial cells, Pkd1-/- (MN24)
T1 sequence (O35245 1-966): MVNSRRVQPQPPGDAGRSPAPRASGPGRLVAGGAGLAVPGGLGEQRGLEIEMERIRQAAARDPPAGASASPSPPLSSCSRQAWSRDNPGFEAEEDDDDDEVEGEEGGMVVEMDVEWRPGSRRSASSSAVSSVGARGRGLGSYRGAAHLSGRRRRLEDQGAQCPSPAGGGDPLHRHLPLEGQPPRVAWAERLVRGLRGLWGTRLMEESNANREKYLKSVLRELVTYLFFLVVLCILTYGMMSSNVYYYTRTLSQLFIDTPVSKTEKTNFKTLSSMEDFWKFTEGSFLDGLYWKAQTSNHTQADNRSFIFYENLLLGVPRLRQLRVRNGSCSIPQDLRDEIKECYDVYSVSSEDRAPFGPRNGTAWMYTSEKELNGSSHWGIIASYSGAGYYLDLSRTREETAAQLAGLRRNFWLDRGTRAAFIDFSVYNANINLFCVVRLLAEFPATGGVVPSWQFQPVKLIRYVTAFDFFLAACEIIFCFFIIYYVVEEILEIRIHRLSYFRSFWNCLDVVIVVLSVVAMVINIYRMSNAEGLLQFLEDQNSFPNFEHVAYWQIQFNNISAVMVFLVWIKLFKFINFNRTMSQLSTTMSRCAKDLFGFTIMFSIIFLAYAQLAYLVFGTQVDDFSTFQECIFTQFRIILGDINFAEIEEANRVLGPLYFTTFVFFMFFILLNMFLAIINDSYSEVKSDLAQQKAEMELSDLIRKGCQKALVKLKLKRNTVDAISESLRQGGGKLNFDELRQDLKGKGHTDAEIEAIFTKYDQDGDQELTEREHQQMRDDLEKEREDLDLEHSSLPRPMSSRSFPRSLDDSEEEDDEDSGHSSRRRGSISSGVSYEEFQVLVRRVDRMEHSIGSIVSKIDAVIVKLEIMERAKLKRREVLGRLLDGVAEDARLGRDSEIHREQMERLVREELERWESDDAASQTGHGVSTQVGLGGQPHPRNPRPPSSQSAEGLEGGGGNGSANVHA
The description is as above. The class given is cell-based. The following applies: 100 nM perfused, Pkd1^−/− cells.
Source text: as §1, §2

For data set [3], the system named is Pkd1^−/− murine model of polycystic kidney disease. In words: Pkd1^−/− murine model of polycystic kidney disease, treatment during gestation. The class given is in vivo, mice. As for the experimental part: Following successful Pkd1^+/−/Pkd1^+/− matings, 0.07 mg/kg/day of triptolide or DMSO control was injected i.p. into pregnant mice until they gave birth. All pups were assessed for viability, length, developmental staging, and wet kidney weight. A total of 59 pups from DMSO treated females and 100 pups from triptolide treated females were examined for multiple parameters, such as genotypic distribution, developmental stage at time of birth, and average kidney weights (Table 1). […] Approximately 20% of all Pkd1^−/− mice were born alive from each treatment group. However, severe edematous abnormalities were obvious upon necropsy.
As per approved IACUC animal protocol, Pkd1^+/−/Pkd1^+/− mice were mated and pregnant mice were divided into control (DMSO) or experimental (triptolide) groups. A total volume of 100 μl of PBS with no more than 5% DMSO or DMSO/0.07 mg/kg/day triptolide was injected i.p. with a 28 G ½ insulin syringe. Mice were weighed and injected starting at E10.5 until birth. All pups were examined for length and developmental staging such as whisker formation. Kidneys were harvested, weighed, and fixed in 4% paraformaldehyde before histological preparation.
Kidneys were prepared by sagittal cross-sectioning and hematoxylin and eosin staining. All kidneys were photographed under the same magnification (4×) and cystic burden was computed using Image J analysis software (NIH). The area of cysts within the total area of the kidney (pixels) was calculated as a final percentage of cystic burden in the kidney. Immunohistochemical analysis of active caspase-3 was completed as per manufacturer's protocol.

Where [4] appears, read: 0.07 mg/kg/day i.p. to pregnant mice, E10.5 until birth.

As to `CC(C)[C@]12O[C@H]1[C@@H]1O[C@]13[C@]1(O[C@H]1C[C@H]1C4=C(CC[C@@]13C)C(=O)OC4)[C@@H]2O` [triptolide, Triptolide], the calcium release result in the data set on polycystin-2 [1] (100 nM perfused, Pkd2^−/− cells) was “no calcium release was detected”; in the data set with polycystin-2 [1] (100 nM, Pkd2 re-expressed in Pkd2^−/− cells) it was “restored calcium release”; at polycystin-2 [2] it was “clear rise in intracellular calcium levels”. The “Alive Pkd1^−/− (birth) (number)” value in data set [3] (setting [4]) is listed as 4. In addition, the “Alive Pkd1^−/− (birth) (percent)” value in data set [3] (setting [4]) is listed as “Approximately 20%”; in data set [3] (0.07 mg/kg/day i.p. to pregnant mice, E10.5 until birth, listed as Triptolide), 22%. Besides, the “diameter of cyst lumens on average” value in data set [3] (Pkd1^−/− kidneys) was “smaller”. For the same molecule, the “active caspase-3 immunoreactivity in kidney sections” value in data set [3] (Pkd1^−/− kidneys, IHC) is “did not show any significant activation of the caspase pathway”. Moreover, the kidney morphology result in data set [3] (mouse, in vivo) is “normal morphology”.
